Data from US20080004266A1, “Method for treating proliferative disorders associated with protooncogene products” (priority 2006, published 2008).

What was measured:
[1] = tested on: EGFR (T790M and L858R mutations); experiment: Degradation of EGFR in NCI-H1975 cells (Western blot); assay type: cell-based, human; details: 18 hours, 1.0 μM, 0.5 μM and 0.1 μM
Method: Non-small cell lung cancer cell line, NCI-H1975 (2×10^6 cells), which harbors both the T790M and the L858R mutations in EGFR and is resistant to erlotinib, was obtained from American Type Culture Collection and was treated with either Compound 226 (1.0 μM, 0.5 μM and 0.1 μM) or 17-AAG (1.0 μM, 0.5 μM and 0.1 μM). After 18 hours, the cells were lysed with 1× lysis buffer and a western blot was perform, and phosphorylated and total EGFR was detected with anti-EGFR antibodies.

[2] = tested on: human acute myelogenous leukemia tumor cell line Mv 4-11; experiment: Mv 4-11 (FLT3-ITD) nude mouse xenograft model; assay type: in vivo, human (xenograft in nude mouse); details: for % T/C value: nude mice, 3 doses
Method: The human acute myelogenous leukemia (AML) cell line, Mv 4-11 (ATCC #CRL-9591), was obtained from the American Type Culture Collection (ATCC; Manassas, Va., USA). Growth of this tumor cell line is dependent upon the expression of an activated form of the FLT3 tyrosine kinase receptor carrying an internal tandem duplication (ITD) mutation, which is the most common molecular defect associated with AML (K. W. Yee et al., Blood 100:2941-2949, 2002). The cells were cultured in growth media prepared with Iscove's Modified Dulbecco's Media, 10% fetal bovine serum (FBS), 1% 100× Penicillin-Streptomycin, 1% 100× sodium pyruvate and 1% 100×MEM non-essential amino acids. FBS was obtained from ATCC and all other reagents were obtained from Invitrogen Corp. (Carlsbad, Calif., USA). Cells that had been cryopreserved in liquid nitrogen were rapidly thawed at 37° C. and transferred to a tissue culture flask containing growth media and then incubated at 37° C. in a 5% CO2 incubator. To expand the cell line, cultures were passaged 1:2 to a density of 5×10 (6) cells/ml every three days by adding an equal volume of fresh growth media. When the flasks reached a density of approximately 10×10 (6) cells/ml, the above passaging process was repeated until sufficient cells had been obtained for implantation into mice.
Seven to eight week old, female Crl:CD-1-nuBR (nude) mice were obtained from Charles River Laboratories (Wilmington, Mass., USA). Animals were housed 4-5/cage in micro-isolators, with a 12 hr/12 hr light/dark cycle, acclimated for at least 1 week prior to use and fed normal laboratory chow ad libitum. Studies were conducted on animals between 8 and 10 weeks of age at implantation. To implant Mv 4-11 tumor cells into nude mice, cell cultures were centrifuged to pellet the cells, the supernatant was aspirated, the cell pellet was resuspended in 10 ml of growth media and the cell number determined using a hemocytometer. […]
Tumors were then permitted to develop in vivo until the majority reached 100-200 mm^3 in tumor volume, which typically required 1-2 weeks following implantation. […] Tumor volumes (V) were calculated by caliper measurement of the width (W), length (L) and thickness (T) of tumors using the following formula: V=0.5236×(L×W×T). Animals were randomized into treatment groups so that the median tumor volumes of each group were similar at the start of dosing. % T/C values, as a measure of efficacy, were determined as follows: • (i) If ΔT>0: % T/C=(ΔT/ΔC)×100 • (ii) If ΔT<0: % T/C=(ΔT/T0)×100 • (iii) ΔT=Change in median tumor volume between start of dosing and the end of study. • (iv) ΔC=Change in median tumor volume between start of dosing and the end of study. • (v) T0=Median tumor volume at start of dosing. […]

[3] = 125 mg/kg i.v. 1 time per week, day 41

For `CC(C)c1cc(-c2nnc(O)n2-c2ccc3c(ccn3C)c2)c(O)cc1O` [Compound 226, 3-(2,4-di-hydroxy-5-isopropyl-phenyl)-4-(1-methyl-indol-5-yl)-5-hydroxy-[1,2,4] triazole], the “degradation of phosphorylated and total EGFR” value [1] was “induced degradation phosphorylated and total EGFR more potently than 17AAG”, the “average bodyweight loss relative to the start of the study” value [2, 3] was −1.4% (+/−1.6 SEM) and the “animals with no apparent tumors” value ([2]; 125 mg/kg treatment group, by day 41 (end of the study)) was 2 of 8. The “% T/C value” ([2]; 50 mg/kg i.v. 1 time per week, day 41) was −63.8% and the “% T/C value” [2, 3] was −93.0%.
